Tests used:
GLXMA (Soybean) [1] = assay: Preemergence herbicidal evaluation; format: in vivo, Glycine max; conditions: rated 4-5 weeks after treatment
Description: (§1) Results of herbicide evaluation are expressed on a rating scale (0-9). The scale is based upon a visual observation of plant stand, vigor, malformation, size, chlorosis and overall plant appearance as compared with a control.
(§2) The preemergence herbicidal activity of the test compounds of the present invention is exemplified by the following tests in which the seeds of a variety of monocotyledonous and dicotyledonous plants are separately mixed with potting soil and planted on top of approximately one inch of soil in separate pint cups. After planting, the cups are sprayed with the selected aqueous acetone solution containing test compound in sufficient quantity to provide the equivalent of about 0.0156 to 0.500 kg per hectare of test compound per cup. The treated cups are then placed on greenhouse benches, watered and cared for in accordance with conventional greenhouse procedures. From four to five weeks after treatment, the tests are terminated and each cup is examined and rated according to the rating system provided in Example 37.
(§3) The compounds evaluated are reported by compound number given in Example 37.

[2] = test system: CHEAL (Lambsquarters, Common); assay: Postemergence herbicidal evaluation; format: in vivo, Chenopodium album; conditions: postemergence
Outline: (§4)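 Young plants, roughly two weeks from seeding, receive the active ingredient as a sprayed dispersion (acetone/water 50/50, 0.5% TWEEN 20) at 40 psi. Doses span about 0.0156 to 0.500 kg/ha. A visual score from 0 to 9 compares treated with control plants four to five weeks on.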

[3] = test system: TRZAWR (Wheat, Winter, cv Riband); assay: Postemergence herbicidal evaluation; format: in vivo, Triticum aestivum; conditions: postemergence
Outline: as §4

ORYSAT (Rice, Tebonnet) [4] = assay: Preemergence herbicidal evaluation; format: in vivo, Oryza sativa, (L.) Tebonnet; conditions: rated 4-5 weeks after treatment
Outline: (§5)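 Steps: mix seeds into potting soil; plant atop ~1 inch soil; spray compound in aqueous acetone (~0.0156-0.500 kg/ha equivalent); maintain in greenhouse with watering; rate visually 0-9 versus control at 4-5 weeks.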

MOOVA (Monochoria) = assay: Postemergence weed control under flooded paddy conditions; format: in vivo, Monochoria vaginalis; conditions: postemergence weeds, 3-4 weeks after treatment
Outline: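 Injury ratings (0–9 scale covering stand, vigor, malformation, size, chlorosis and overall appearance versus control) were made three to four weeks after treatment. Test material, about 0.0313 to 0.500 kg/ha a.i. in 50/50 v/v aqueous/acetone, was added to flood water 1.5 to 3 cm deep over 3 to 5 cm weeds and 1.5 to 2.5 leaf rice.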

[5] = test system: IPOSS (Morningglory Spp.); assay: Postemergence herbicidal evaluation; format: in vivo, Ipomoea Spp.
Procedure: (§6) In the tests, seedling plants are grown in jiffy flats for about two weeks. The test compounds are dispersed in 50/50 acetone/water mixtures containing 0.5% TWEEN®20, a polyoxyethylene sorbitan monolaurate surfactant of Atlas Chemical Industries, in sufficient quantities to provide the equivalent of about 0.0156 kg to 0.500 kg per hectare of active compound when applied to the plants through a spray nozzle operating at 40 psi for a predetermined time. After spraying, the plants are placed on greenhouse benches and are cared for in accordance with conventional greenhouse procedures. From four to five weeks after treatment, the seedling plants are examined and rated according to the rating system set forth below. Where more than one test is involved for a given compound, the data are averaged.
(§7) Plant species employed in these evaluations are reported by header abbreviation, common name and scientific name.
as §1

[6] = test system: CHEAL (Lambsquarters, Common); assay: Preemergence herbicidal evaluation; format: in vivo, Chenopodium album; conditions: rated 4-5 weeks after treatment
Outline: as §5

[7] = test system: IPOSS (Morningglory Spp.); assay: Preemergence herbicidal evaluation; format: in vivo, Ipomoea Spp.; conditions: rated 4-5 weeks after treatment
Description: as §1, §2, §3

CASOB (Sicklepod) = assay: Postemergence herbicidal evaluation; format: in vivo, Cassia obtusifolia; conditions: postemergence
Outline: as §4

GLXMA (Soybean) [8] = assay: Postemergence herbicidal evaluation; format: in vivo, Glycine max
Procedure: as §6, §7, §1

ORYSAT (Rice, Tebonnet) [9] = assay: Rice tolerance to post-transplant applications, flooded paddy conditions (Table III); format: in vivo, Oryza sativa, (L.) Tebonnet; conditions: post-transplant rice, flooded paddy, rated 3-4 weeks after treatment
Outline: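 Injury scored 0-9 by eye against untreated control, judging stand, vigor, malformation, size and chlorosis, three to four weeks after treatment. Compound in 50/50 aqueous/acetone, about 0.0313 to 0.500 kg/ha, was applied to paddy water (1.5 to 3 cm depth) three days after transplanting paired ten-day-old Tebonnet rice seedlings.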

ORYSAT (Rice, Tebonnet) [10] = assay: Rice tolerance to post-transplant applications, flooded paddy conditions (Table IV); format: in vivo, Oryza sativa, (L.) Tebonnet; conditions: flooded paddy, post-transplant rice, 3-4 weeks after treatment
Outline: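 With weeds 3 to 5 cm tall and rice at the 1.5 to 2.5 leaf stage, containers were flooded and water held 1.5 to 3 cm above soil. Compounds in 50/50 v/v aqueous/acetone went into the flood water at about 0.0313 to 0.500 kg/ha a.i. Effects were visually rated 0–9 against controls after three to four weeks in the greenhouse.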

CN1C(=O)C(F)SC1=Nc1cc(N2C(=O)C3=C(CCCC3)C2=O)c(F)cc1Cl (centres unmarked) [Compound 5, N-{4-chloro-2-fluoro-5-[(5-fluoro-3-methyl-4-oxo-2-thiazolidinylidene)amino]phenyl}-1-cyclohexene-1,2-dicarboximide]
4.0: Herbicidal rating MOOVA (MOOVA (Monochoria); rate 0.5000 kg/ha) | IPOSS herbicidal rating ([5]; rate 0.1250 kg/ha) | CHEAL preemergence herbicidal rating ([6]; rate 0.0625 kg/ha) | GLXMA herbicidal rating (GLXMA (Soybean) [8]; rate 0.1250 kg/ha) | GLXMA herbicidal rating (GLXMA (Soybean) [8]; rate 0.2500 kg/ha)
9.0: CHEAL herbicidal rating ([2]; rate 0.1250 kg/ha) | CHEAL herbicidal rating ([2]; rate 0.5000 kg/ha) | IPOSS herbicidal rating ([5]; rate 0.2500 kg/ha) | IPOSS herbicidal rating ([5]; rate 0.5000 kg/ha) | CHEAL preemergence herbicidal rating ([6]; rate 0.2500 kg/ha) | CHEAL preemergence herbicidal rating ([6]; rate 0.5000 kg/ha) | CASOB herbicidal rating (CASOB (Sicklepod); rate 0.5000 kg/ha)
1.0: GLXMA preemergence herbicidal rating (GLXMA (Soybean) [1]; rate 0.0625 kg/ha) | GLXMA preemergence herbicidal rating (GLXMA (Soybean) [1]; rate 0.1250 kg/ha) | Herbicidal rating MOOVA (MOOVA (Monochoria); rate 0.1250 kg/ha) | IPOSS herbicidal rating ([5]; rate 0.0313 kg/ha)
3.0: TRZAWR herbicidal rating ([3]; rate 0.0157 kg/ha) | TRZAWR herbicidal rating ([3]; rate 0.0313 kg/ha) | GLXMA herbicidal rating (GLXMA (Soybean) [8]; rate 0.0157 kg/ha) | GLXMA herbicidal rating (GLXMA (Soybean) [8]; rate 0.0313 kg/ha) | GLXMA herbicidal rating (GLXMA (Soybean) [8]; rate 0.0625 kg/ha)
8.0: CHEAL herbicidal rating ([2]; rate 0.2500 kg/ha)
2.0: GLXMA preemergence herbicidal rating (GLXMA (Soybean) [1]; rate 0.2500 kg/ha) | GLXMA preemergence herbicidal rating (GLXMA (Soybean) [1]; rate 0.5000 kg/ha) | CHEAL herbicidal rating ([2]; rate 0.0157 kg/ha) | CHEAL herbicidal rating ([2]; rate 0.0313 kg/ha) | ORYSAT preemergence herbicidal rating (ORYSAT (Rice, Tebonnet) [4]; rate 0.2500 kg/ha) | ORYSAT preemergence herbicidal rating (ORYSAT (Rice, Tebonnet) [4]; rate 0.5000 kg/ha) | Herbicidal rating MOOVA (MOOVA (Monochoria); rate 0.2500 kg/ha) | IPOSS herbicidal rating ([5]; rate 0.0625 kg/ha)
3.5: TRZAWR herbicidal rating ([3]; rate 0.0625 kg/ha)
4.5: TRZAWR herbicidal rating ([3]; rate 0.1250 kg/ha) | TRZAWR herbicidal rating ([3]; rate 0.5000 kg/ha) | GLXMA herbicidal rating (GLXMA (Soybean) [8]; rate 0.5000 kg/ha)
5.0: TRZAWR herbicidal rating ([3]; rate 0.2500 kg/ha) | CHEAL preemergence herbicidal rating ([6]; rate 0.1250 kg/ha)
6.0: CHEAL herbicidal rating ([2]; rate 0.0625 kg/ha)
0.0: ORYSAT preemergence herbicidal rating (ORYSAT (Rice, Tebonnet) [4]; rate 0.0625 kg/ha) | ORYSAT preemergence herbicidal rating (ORYSAT (Rice, Tebonnet) [4]; rate 0.1250 kg/ha) | IPOSS herbicidal rating ([5]; rate 0.0157 kg/ha) | IPOSS preemergence herbicidal rating ([7]; rate 0.0625 kg/ha) | IPOSS preemergence herbicidal rating ([7]; rate 0.1250 kg/ha) | IPOSS preemergence herbicidal rating ([7]; rate 0.2500 kg/ha) | IPOSS preemergence herbicidal rating ([7]; rate 0.5000 kg/ha) | CASOB herbicidal rating (CASOB (Sicklepod); rate 0.0157 kg/ha) | CASOB herbicidal rating (CASOB (Sicklepod); rate 0.0313 kg/ha) | CASOB herbicidal rating (CASOB (Sicklepod); rate 0.0625 kg/ha) | CASOB herbicidal rating (CASOB (Sicklepod); rate 0.1250 kg/ha) | CASOB herbicidal rating (CASOB (Sicklepod); rate 0.2500 kg/ha)

O=C1CSC(=Nc2cc(N3C(=O)C4=C(CCCC4)C3=O)c(F)cc2Cl)N1c1ccccc1 [Compound 3, N-{4-chloro-2-fluoro-5-[(4-oxo-3-phenyl-2-thiazolidinylidene)amino]phenyl}-1-cyclohexene-1,2-dicarboximide]
3.0: TRZAWR herbicidal rating ([3]; rate 0.0625 kg/ha) | TRZAWR herbicidal rating ([3]; rate 0.2500 kg/ha) | Herbicidal rating ORYSAT (rice tolerance) (ORYSAT (Rice, Tebonnet) [9]; 0.5000 kg/ha)
7.0: CHEAL herbicidal rating ([2]; rate 0.0313 kg/ha)
4.5: Herbicidal rating MOOVA (MOOVA (Monochoria); rate 0.1250 kg/ha) | Herbicidal rating MOOVA (MOOVA (Monochoria); rate 0.2500 kg/ha)
2.0: IPOSS herbicidal rating ([5]; rate 0.0313 kg/ha) | IPOSS preemergence herbicidal rating ([7]; rate 0.2500 kg/ha) | Herbicidal rating ORYSAT (rice tolerance) (ORYSAT (Rice, Tebonnet) [9]; 0.1250 kg/ha) | Herbicidal rating ORYSAT (rice tolerance) (ORYSAT (Rice, Tebonnet) [9]; 0.2500 kg/ha) | Herbicidal rating ORYSAT (rice tolerance) (ORYSAT (Rice, Tebonnet) [10]; rate 0.5000 kg/ha)
8.0: IPOSS herbicidal rating ([5]; rate 0.2500 kg/ha)
2.5: TRZAWR herbicidal rating ([3]; rate 0.0157 kg/ha) | TRZAWR herbicidal rating ([3]; rate 0.0313 kg/ha) | TRZAWR herbicidal rating ([3]; rate 0.1250 kg/ha)
4.0: TRZAWR herbicidal rating ([3]; rate 0.5000 kg/ha) | IPOSS herbicidal rating ([5]; rate 0.0625 kg/ha) | IPOSS preemergence herbicidal rating ([7]; rate 0.5000 kg/ha) | CASOB herbicidal rating (CASOB (Sicklepod); rate 0.5000 kg/ha)
5.5: Herbicidal rating MOOVA (MOOVA (Monochoria); rate 0.5000 kg/ha)
0.0: ORYSAT preemergence herbicidal rating (ORYSAT (Rice, Tebonnet) [4]; rate 0.0313 kg/ha) | ORYSAT preemergence herbicidal rating (ORYSAT (Rice, Tebonnet) [4]; rate 0.0625 kg/ha) | ORYSAT preemergence herbicidal rating (ORYSAT (Rice, Tebonnet) [4]; rate 0.1250 kg/ha) | ORYSAT preemergence herbicidal rating (ORYSAT (Rice, Tebonnet) [4]; rate 0.2500 kg/ha) | IPOSS preemergence herbicidal rating ([7]; rate 0.0313 kg/ha) | IPOSS preemergence herbicidal rating ([7]; rate 0.0625 kg/ha) | IPOSS preemergence herbicidal rating ([7]; rate 0.1250 kg/ha) | Herbicidal rating ORYSAT (rice tolerance) (ORYSAT (Rice, Tebonnet) [9]; 0.0625 kg/ha) | CASOB herbicidal rating (CASOB (Sicklepod); rate 0.0157 kg/ha) | CASOB herbicidal rating (CASOB (Sicklepod); rate 0.0313 kg/ha) | CASOB herbicidal rating (CASOB (Sicklepod); rate 0.0625 kg/ha) | CASOB herbicidal rating (CASOB (Sicklepod); rate 0.1250 kg/ha) | Herbicidal rating ORYSAT (rice tolerance) (ORYSAT (Rice, Tebonnet) [10]; rate 0.0625 kg/ha)
9.0: CHEAL herbicidal rating ([2]; rate 0.1250 kg/ha) | CHEAL herbicidal rating ([2]; rate 0.2500 kg/ha) | CHEAL herbicidal rating ([2]; rate 0.5000 kg/ha) | IPOSS herbicidal rating ([5]; rate 0.1250 kg/ha) | IPOSS herbicidal rating ([5]; rate 0.5000 kg/ha) | CHEAL preemergence herbicidal rating ([6]; rate 0.0625 kg/ha) | CHEAL preemergence herbicidal rating ([6]; rate 0.1250 kg/ha) | CHEAL preemergence herbicidal rating ([6]; rate 0.2500 kg/ha) | CHEAL preemergence herbicidal rating ([6]; rate 0.5000 kg/ha)
1.0: ORYSAT preemergence herbicidal rating (ORYSAT (Rice, Tebonnet) [4]; rate 0.5000 kg/ha) | Herbicidal rating MOOVA (MOOVA (Monochoria); rate 0.0625 kg/ha) | Herbicidal rating ORYSAT (rice tolerance) (ORYSAT (Rice, Tebonnet) [10]; rate 0.1250 kg/ha) | Herbicidal rating ORYSAT (rice tolerance) (ORYSAT (Rice, Tebonnet) [10]; rate 0.2500 kg/ha)
6.0: CHEAL herbicidal rating ([2]; rate 0.0625 kg/ha) | CHEAL preemergence herbicidal rating ([6]; rate 0.0313 kg/ha) | CASOB herbicidal rating (CASOB (Sicklepod); rate 0.2500 kg/ha)
